Values after ≈ are worked out from the molar mass of the structure shown.
Key:
[1] = tested on: M. tuberculosis inside the host macrophage; assay: QIM: Quantification of Intracellular Mycobacteria (intracellular growth assay, phenotypic cell-based); conditions: MIC, 80% bacterial growth inhibition, intracellular growth; for MIC: Mycobacterium tuberculosis, read-out: QIM
Method in brief: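 Dose-response testing of intracellular mycobacterial replication in infected macrophages, a cell-based screening format; MIC is defined as the lowest concentration achieving 80% inhibition of bacterial growth.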

[2] = tested on: in vitro grown Mycobacteria (M. tuberculosis); assay: QUM: Quantification of in vitro grown Mycobacteria (in vitro growth fluorescence assay); type: cell-based; conditions: MIC, 80% bacterial growth inhibition, in vitro growth; for MIC: Mycobacterium tuberculosis, read-out: QUM
Method in brief: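 Mycobacterium tuberculosis grown in vitro was quantified by fluorescence across compound dose responses. MIC is defined as the minimum concentration producing 80% growth inhibition.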

| Structure (SMILES) | MIC [1] | MIC [2] | QIM (μM) [1] | QUM (μM) [2] |
| --- | --- | --- | --- | --- |
| Cc1nc2ccccn2c1C(=O)NCc1ccc(-c2ccccc2)cc1 [Compound 16, N-(Biphenyl-4-ylmethyl)-2-methylimidazo[1,2-a]pyridine-3-carboxamide] | < 1 µM | < 1 µM | – | – |
| CCc1nc2ccc(C)cn2c1C(=O)NCc1ccc2c(ccn2C)c1 [Compound 66, 2-Ethyl-6-methyl-N-((1-methyl-1H-indol-5-yl)methyl)imidazo[1,2-a]pyridine-3-carboxamide] | < 1 µM | < 1 µM | – | – |
| Cc1nc2ccccn2c1C(=O)NCC1CCN(C(=O)OC(C)(C)C)CC1 [Compound 19, tert-Butyl 4-((2-methylimidazo[1,2-a]pyridine-3-carboxamido)methyl)piperidine-1-carboxylate] | > 20 µM | > 20 µM | – | – |
| CCc1nc2cc(Cl)ccn2c1C(=O)NCc1ccc(N2CCN(C(C)C)CC2)cc1 [Compound 110, 7-Chloro-2-ethyl-N-(4-(4-isopropylpiperazin-1-yl)benzyl)imidazo[1,2-a]pyridine-3-carboxamide] | < 1 µM | 1 to 20 µM (≈ 0.44 to 8.8 µg/mL) | – | – |
| CCc1nc2cc(Cl)ccn2c1C(=O)NCc1ccc(-c2ccncc2)cc1 [Compound 134, 7-Chloro-2-ethyl-N-(4-(pyridin-4-yl)benzyl)imidazo[1,2-a]pyridine-3-carboxamide] | < 1 µM | 1 to 20 µM (≈ 0.391 to 7.82 µg/mL) | – | – |
| CCc1nc2ccc(Cl)cn2c1C(=O)NCc1ccc(N2CCC(Oc3ccc(C(F)(F)F)cc3)CC2)cc1 [Compound 164, 6-Chloro-2-ethyl-N-(4-(4-(4-(trifluoromethyl)phenoxy)piperidin-1-yl)benzyl) imidazo[1,2-a]pyridine-3-carboxamide] | < 1 µM | < 1 µM | – | – |
| CCc1nc2cc(Cl)ccn2c1C(=O)NCc1ccc(-c2ccccc2C#N)cc1 [Compound 126, 7-Chloro-N-((2′-cyanobiphenyl-4-yl)methyl)-2-ethylimidazo[1,2-a]pyridine-3-carboxamide] | 1 to 20 µM (≈ 0.415 to 8.3 µg/mL) | < 1 µM | – | – |
| CC(C)c1nc2ccccn2c1C(=O)NCc1ccccc1 [Compound 51, N-Benzyl-2-isopropylimidazo[1,2-a]pyridine-3-carboxamide] | > 20 µM | > 20 µM | – | – |
| CCc1nc2cc(Cl)ccn2c1C(=O)NCc1ccc(Br)cc1 [Compound 101, N-(4-Bromobenzyl)-7-chloro-2-ethylimidazo[1,2-a]pyridine-3-carboxamide] | < 1 µM | 1 to 20 µM (≈ 0.393 to 7.85 µg/mL) | – | – |
| Cc1nc2ccc(Cl)cn2c1C(=O)NCc1ccc(OC(F)(F)F)cc1 [Compound 154, 6-Chloro-2-methyl-N-(4-(trifluoromethoxy)benzyl)imidazo[1,2-a]pyridine-3-carboxamide] | 1 to 20 µM (≈ 0.384 to 7.68 µg/mL) | < 1 µM | – | – |
| CCc1nc2ccc(Cl)cn2c1C(=O)NCc1ccc(OC(C)C)cc1 [Compound 75] | < 1 µM | < 1 µM | – | – |
| CCc1nc2ccc(Cl)cn2c1C(=O)NCc1ccc(-c2cccc(C)c2)cc1 [Compound 85, 6-Chloro-2-ethyl-N-((3′-methylbiphenyl-4-yl)methyl)imidazo[1,2-a]pyridine-3-carboxamide] | < 1 µM | < 1 µM | – | – |
| COc1ccc(CNC(=O)c2c(C)nc3ccccn23)cc1 [Compound 12, N-(4-Methoxybenzyl)-2-methylimidazo[1,2-a]pyridine-3-carboxamide] | 1 to 20 µM (≈ 0.295 to 5.91 µg/mL) | 1 to 20 µM (≈ 0.295 to 5.91 µg/mL) | – | – |
| CCc1nc2ccc(Cl)cn2c1C(=O)NCC1CCCc2c1cnn2-c1ccc(OC(F)(F)F)cc1 (stereo not drawn) [Compound 237, 6-Chloro-2-ethyl-N-((1-(4-(trifluoromethoxy)phenyl)-4,5,6,7-tetrahydro-1,1-indazol-4-yl)methyl)imidazo[1,2-a]pyridine-3-carboxamide] | > 20 µM | > 20 µM | – | – |
| CCc1nc2ccc(Cl)cn2c1C(=O)N1CCC(OCc2ccc(OC(F)(F)F)cc2)CC1 [Compound 230, (6-Chloro-2-ethylimidazo[1,2-a]pyridin-3-yl)(4-(4-(trifluoromethoxy)benzyloxy)piperidin-1-yl)methanone] | > 20 µM | > 20 µM | – | – |
| CCc1nc2cc(Cl)ccn2c1C(=O)NCc1ccc2ccccc2c1 [Compound 91, 7-Chloro-2-ethyl-N-(naphthalen-2-ylmethyl)imidazo[1,2-a]pyridine-3-carboxamide] | 1 to 20 µM (≈ 0.364 to 7.28 µg/mL) | < 1 µM | – | – |
| CCc1nc2cc(Cl)ccn2c1C(=O)NCc1ccc(Nc2ccc(OC(F)(F)F)cc2)cc1 [Compound 199, 7-Chloro-2-ethyl-N-(4-(4-(trifluoromethoxy)phenylamino)benzyl)imidazo[1,2-a]pyridine-3-carboxamide] | < 1 µM | < 1 µM | – | – |
| Cc1nc2ccccn2c1C(=O)NCCOCc1ccccc1 [Compound 24, N-(2-(Benzyloxy)ethyl)-2-methylimidazo[1,2-a]pyridine-3-carboxamide] | > 20 µM | > 20 µM | – | – |
| CCc1nc2ccc(Cl)cn2c1C(=O)NCc1ccc(OCc2ccc(F)cc2)cc1 [Compound 202, 6-Chloro-2-ethyl-N-(4-(4-fluorobenzyloxy)benzyl)imidazo[1,2-a]pyridine-3-carboxamide] | < 1 µM | < 1 µM | – | – |
| CCc1nc2cc(Cl)ccn2c1C(=O)NCc1ccc(N2CCC(COC(C)C)CC2)cc1 [Compound 292, 7-Chloro-2-ethyl-N-(4-(4-(isopropoxymethyl)piperidin-1-yl)benzyl)imidazo[1,2-a]pyridine-3-carboxamide] | < 1 µM | < 1 µM | – | – |
| CCc1nc2ccc(Cl)cn2c1C(=O)NCc1ccc(N2CCC(Oc3ccc(Cl)cc3)CC2)cc1 [Compound 162, 6-Chloro-N-(4-(4-(4-chlorophenoxy)piperidin-1-yl)benzyl)-2-ethylimidazo[1,2-a]pyridine-3-carboxamide] | < 1 µM | < 1 µM | – | – |
| CCc1nc2ccccn2c1C(=O)NCc1ccc2ccn(C)c2c1 [Compound 58, 2-Ethyl-N-((1-methyl-1H-indol-6-yl)methyl)imidazo[1,2-a]pyridine-3-carboxamide] | 1 to 20 µM (≈ 0.332 to 6.65 µg/mL) | 1 to 20 µM (≈ 0.332 to 6.65 µg/mL) | – | – |
| CCc1nc2cc(Cl)ccn2c1NC(=O)c1ccc(-c2ccccc2)cc1 [Compound 142, N-(7-Chloro-2-ethylimidazo[1,2-a]pyridin-3-yl)biphenyl-4-carboxamide] | > 20 µM | > 20 µM | – | – |
| CCCc1nc2ccccn2c1C(=O)NCc1ccccc1 [Compound 48, N-Benzyl-2-propylimidazo[1,2-a]pyridine-3-carboxamide] | > 20 µM | 1 to 20 µM (≈ 0.293 to 5.87 µg/mL) | – | – |
| CCc1nc2cc(Cl)ccn2c1C(=O)NCc1ccn(-c2ccc(OC(F)(F)F)cc2)n1 [Compound 232, 7-Chloro-2-ethyl-N-((1-(4-(trifluoromethoxy)phenyl)-1H-pyrazol-3-yl)methyl) imidazo[1,2-a]pyridine-3-carboxamide] | – | – | ++ (++ indicates between 1-20 uM) | ++ (++ indicates between 1-20 uM) |
| CCc1nc2cc(O)ccn2c1C(=O)NCc1ccc(OC(F)(F)F)cc1 [Compound 105, 2-Ethyl-7-hydroxy-N-(4-(trifluoromethoxy)benzyl)imidazo[1,2-a]pyridine-3-carboxamide] | > 20 µM | > 20 µM | – | – |
| CCc1nc2cc(Cl)ccn2c1C(=O)NCc1ccc(-c2ccccc2C(F)(F)F)cc1 [Compound 124] | < 1 µM | 1 to 20 µM (≈ 0.458 to 9.16 µg/mL) | – | – |
